Activity calls are given as the source filed them.
How the values were obtained:
[1] = tested on: HeLa; test: HeLa cell cytotoxicity, dose response, cytotoxicity control for MITF activator project, CellTiter-Glo luminescence, cherry-pick samples (AID 540259); assay type: functional, cell-based; conditions: Homo sapiens
[2] = target: Phospholipase A2 (Homo sapiens, UniProt P04054); assay type: functional;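 note: confirmatory dose-response counterscreen on phospholipase A2, testing hits that came from an ultra-high-throughput screen for ATG4B inhibitors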
Phospholipase A2, sequence (P04054 whole entry): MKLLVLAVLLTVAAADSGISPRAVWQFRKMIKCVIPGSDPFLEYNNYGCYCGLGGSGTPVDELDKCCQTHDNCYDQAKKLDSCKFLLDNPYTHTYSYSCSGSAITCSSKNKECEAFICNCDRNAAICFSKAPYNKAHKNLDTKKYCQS

[3] = target: T1, Cysteine protease ATG4B (Homo sapiens, UniProt Q9Y4P1); assay type: functional;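 note: Fluorescence-based dose-response confirmation assay measuring inhibition of ATG4B activity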
T1 sequence (Q9Y4P1 whole entry): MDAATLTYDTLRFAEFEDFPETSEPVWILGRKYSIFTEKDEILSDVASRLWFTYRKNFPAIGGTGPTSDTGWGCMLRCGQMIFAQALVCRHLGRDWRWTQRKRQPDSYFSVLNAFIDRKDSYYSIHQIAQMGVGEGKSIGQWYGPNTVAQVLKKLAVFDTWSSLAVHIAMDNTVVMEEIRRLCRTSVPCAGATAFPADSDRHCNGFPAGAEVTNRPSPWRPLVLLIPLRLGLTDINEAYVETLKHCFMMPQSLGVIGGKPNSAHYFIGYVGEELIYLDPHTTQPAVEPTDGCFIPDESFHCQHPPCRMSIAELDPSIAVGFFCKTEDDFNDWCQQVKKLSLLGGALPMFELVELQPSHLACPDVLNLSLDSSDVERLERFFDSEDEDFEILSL

[4] = target: T2, High affinity choline transporter 1 (Homo sapiens, UniProt Q9GZV3); test: CHT inhibitors, dose response, cell-based, 5-point CRC, membrane potential dye (AID 504840); assay type: functional
T2 sequence (Q9GZV3 whole entry): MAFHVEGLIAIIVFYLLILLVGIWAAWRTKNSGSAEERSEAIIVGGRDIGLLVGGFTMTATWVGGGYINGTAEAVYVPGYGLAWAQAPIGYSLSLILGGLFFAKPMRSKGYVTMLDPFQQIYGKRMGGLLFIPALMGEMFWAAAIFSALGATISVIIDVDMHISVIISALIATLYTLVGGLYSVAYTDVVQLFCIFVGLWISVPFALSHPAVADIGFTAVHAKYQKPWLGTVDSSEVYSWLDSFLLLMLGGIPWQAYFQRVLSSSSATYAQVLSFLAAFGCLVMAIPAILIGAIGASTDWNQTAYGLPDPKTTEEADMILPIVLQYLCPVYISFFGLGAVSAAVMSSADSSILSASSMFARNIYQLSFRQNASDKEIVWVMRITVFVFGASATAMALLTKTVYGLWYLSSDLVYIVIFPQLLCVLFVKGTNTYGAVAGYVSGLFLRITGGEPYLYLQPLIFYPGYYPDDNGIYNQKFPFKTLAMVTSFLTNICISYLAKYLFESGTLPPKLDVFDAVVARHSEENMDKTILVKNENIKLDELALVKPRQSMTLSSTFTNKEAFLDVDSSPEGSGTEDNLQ

[5] = target: Glucose-6-phosphate 1-dehydrogenase (Homo sapiens, UniProt P11413); test: human G6PD enzyme inhibitors, dose response, selectivity assay for P. falciparum G6PD inhibitor project, biochemical, fluorescence (AID 504792); assay type: functional
Glucose-6-phosphate 1-dehydrogenase, sequence (P11413 whole entry): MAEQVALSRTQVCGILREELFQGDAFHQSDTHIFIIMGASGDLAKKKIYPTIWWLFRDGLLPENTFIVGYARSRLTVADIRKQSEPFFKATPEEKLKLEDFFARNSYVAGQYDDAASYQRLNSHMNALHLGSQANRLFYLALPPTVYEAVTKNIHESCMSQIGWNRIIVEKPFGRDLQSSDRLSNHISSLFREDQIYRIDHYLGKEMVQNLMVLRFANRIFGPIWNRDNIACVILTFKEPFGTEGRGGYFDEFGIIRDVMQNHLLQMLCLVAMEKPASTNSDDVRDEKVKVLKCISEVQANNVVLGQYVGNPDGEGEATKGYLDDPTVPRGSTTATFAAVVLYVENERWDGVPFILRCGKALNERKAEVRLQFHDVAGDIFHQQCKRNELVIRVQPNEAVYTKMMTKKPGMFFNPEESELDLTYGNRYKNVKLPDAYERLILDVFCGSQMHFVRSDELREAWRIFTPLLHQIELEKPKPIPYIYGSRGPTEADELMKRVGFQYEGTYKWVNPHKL

[6] = C. albicans growth with fluconazole, confirmation, fluorescence, retest (AID 2467); assay type: functional, cell-based
[7] = NIH-3T3 fibroblast cytotoxicity, dose response, cytotoxicity control, cell-based, fluorescence, Alamar Blue, secondary assay (AID 2327); assay type: functional;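 note: NIH-3T3 mouse fibroblasts cultured with fluconazole at 8 µg/mL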
[8] = tested on: HEK293; test: inhibitors of LMP1-driven NF-kB reporter, dose response, cell-based, HEK293, luciferase, cherry-pick (AID 588343); assay type: functional; conditions: Homo sapiens
[9] = tested on: INS1; test: beta cell apoptosis inhibitors, cytokine rescue, dose response, luminescence, retest (AID 449756); assay type: functional, cell-based; conditions: Rattus norvegicus;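 note: cell death triggered by IL-1 beta plus TNF-alpha plus IFN-gamma mixture; protective hits raise ATP signal compared with cytokine alone wells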
[10] = growth suppression of PTEN-null colon cells, dose response, cell-based, HCT116 PTEN knockout (AID 1047); assay type: functional;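 note: HCT116 colon tumor cells with PTEN knocked out; cells exposed to compound for 60 hours before readout; potency for loss of cell viability measured by luminescence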
[11] = growth suppression of beta-catenin-knockout colon cells, dose response, cell-based, HCT116, human colon tumor (AID 1045); assay type: functional;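 note: HCT116 colon tumor cells with beta catenin knocked out; cells exposed to compound for 60 hours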
[12] = target: Cytochrome P450 2C19 (Homo sapiens, UniProt P33261); test: Cytochrome panel assay with activity outcomes. Panel member name: p450-cyp2c19 Compounds with AC50 equal or less than 10 uM are considered active; assay type: functional; conditions: read-out: AC50
Cytochrome P450 2C19, sequence (P33261 whole entry): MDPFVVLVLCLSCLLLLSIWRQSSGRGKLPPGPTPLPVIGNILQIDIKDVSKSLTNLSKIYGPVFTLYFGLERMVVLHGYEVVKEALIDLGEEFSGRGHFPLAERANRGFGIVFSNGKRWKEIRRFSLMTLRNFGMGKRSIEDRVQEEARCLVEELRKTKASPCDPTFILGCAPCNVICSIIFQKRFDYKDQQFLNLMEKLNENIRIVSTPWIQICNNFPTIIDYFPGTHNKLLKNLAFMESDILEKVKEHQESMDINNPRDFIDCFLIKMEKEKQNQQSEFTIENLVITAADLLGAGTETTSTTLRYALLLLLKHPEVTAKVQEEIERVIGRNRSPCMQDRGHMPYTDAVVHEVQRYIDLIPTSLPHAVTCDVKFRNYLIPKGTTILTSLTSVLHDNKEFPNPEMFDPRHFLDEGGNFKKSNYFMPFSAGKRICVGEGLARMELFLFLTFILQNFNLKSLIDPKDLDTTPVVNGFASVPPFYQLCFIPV

[13] = target: T3, SUMO-activating enzyme (Homo sapiens, UniProt Q9UBT2); test: inhibitors of in vitro SUMOylation cascade, primary screen, biochemical, HTRF, uHTS (AID 2006); assay type: protein-complex assay
T3 sequence (Q9UBE0 whole entry): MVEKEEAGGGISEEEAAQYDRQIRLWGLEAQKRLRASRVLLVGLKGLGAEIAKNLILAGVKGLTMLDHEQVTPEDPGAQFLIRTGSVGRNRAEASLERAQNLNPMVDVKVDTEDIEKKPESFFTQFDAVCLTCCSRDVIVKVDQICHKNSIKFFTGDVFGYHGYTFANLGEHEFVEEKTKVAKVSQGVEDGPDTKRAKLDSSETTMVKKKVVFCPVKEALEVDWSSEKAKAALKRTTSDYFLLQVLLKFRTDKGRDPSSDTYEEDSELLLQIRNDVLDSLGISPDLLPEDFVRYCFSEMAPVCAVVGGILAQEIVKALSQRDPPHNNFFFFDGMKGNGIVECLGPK
T3 sequence (Q9UBT2 whole entry): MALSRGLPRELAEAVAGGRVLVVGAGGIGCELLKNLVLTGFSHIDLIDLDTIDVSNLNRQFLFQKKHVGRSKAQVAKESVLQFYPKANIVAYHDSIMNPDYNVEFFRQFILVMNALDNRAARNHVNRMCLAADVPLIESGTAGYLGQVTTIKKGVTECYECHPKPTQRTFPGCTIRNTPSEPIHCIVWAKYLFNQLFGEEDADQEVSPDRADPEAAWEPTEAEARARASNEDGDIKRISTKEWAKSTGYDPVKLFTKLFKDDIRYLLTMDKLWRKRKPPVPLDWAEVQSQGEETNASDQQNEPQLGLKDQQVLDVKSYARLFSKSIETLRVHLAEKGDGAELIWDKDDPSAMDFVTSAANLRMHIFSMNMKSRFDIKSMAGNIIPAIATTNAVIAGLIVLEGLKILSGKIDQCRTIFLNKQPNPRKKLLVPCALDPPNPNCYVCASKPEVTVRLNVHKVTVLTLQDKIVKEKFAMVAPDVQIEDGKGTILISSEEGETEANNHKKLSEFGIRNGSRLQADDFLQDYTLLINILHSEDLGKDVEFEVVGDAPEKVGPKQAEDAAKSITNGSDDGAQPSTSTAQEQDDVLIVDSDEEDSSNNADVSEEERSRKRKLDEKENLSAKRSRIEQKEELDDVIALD

[14] = target: T4, Calpain-2 catalytic subunit (Sus scrofa, UniProt P43367); test: pig calpain II inhibitor potency, dose response, biochemical, fluorogenic peptide substrate (AID 1420); assay type: functional
T4 sequence (P43367 whole entry): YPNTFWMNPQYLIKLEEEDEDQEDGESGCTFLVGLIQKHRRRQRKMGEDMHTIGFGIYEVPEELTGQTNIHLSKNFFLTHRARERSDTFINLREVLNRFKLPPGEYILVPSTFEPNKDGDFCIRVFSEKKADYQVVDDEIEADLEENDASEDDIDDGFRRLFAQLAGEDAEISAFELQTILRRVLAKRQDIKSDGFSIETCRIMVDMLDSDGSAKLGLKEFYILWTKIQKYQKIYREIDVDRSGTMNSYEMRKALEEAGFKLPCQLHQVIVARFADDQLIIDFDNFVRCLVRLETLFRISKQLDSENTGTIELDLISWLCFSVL

[15] = target: Cytochrome P450 2C9 (Homo sapiens, UniProt P11712)
Cytochrome P450 2C9, sequence (P11712 whole entry): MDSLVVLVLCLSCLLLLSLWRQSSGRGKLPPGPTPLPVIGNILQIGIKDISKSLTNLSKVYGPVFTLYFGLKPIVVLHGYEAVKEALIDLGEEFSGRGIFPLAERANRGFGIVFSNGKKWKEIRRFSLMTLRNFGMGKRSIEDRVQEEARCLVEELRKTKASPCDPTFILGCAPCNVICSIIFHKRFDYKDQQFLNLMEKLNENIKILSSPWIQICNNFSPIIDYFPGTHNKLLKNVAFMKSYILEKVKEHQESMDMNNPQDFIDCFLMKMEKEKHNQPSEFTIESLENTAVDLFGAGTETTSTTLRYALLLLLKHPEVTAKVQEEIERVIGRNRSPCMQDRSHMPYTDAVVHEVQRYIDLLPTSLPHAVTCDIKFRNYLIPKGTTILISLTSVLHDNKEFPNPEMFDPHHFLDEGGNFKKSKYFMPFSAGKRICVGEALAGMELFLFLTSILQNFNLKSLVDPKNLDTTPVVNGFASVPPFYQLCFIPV

[16] = target: T3, SUMO-activating enzyme; test: SUMOylation inhibitor hit validation, confirmation, SUMOylation inhibitor project, biochemical, AlphaScreen (AID 2018); assay type: functional
[17] = target: T5, Leucine aminopeptidase (Plasmodium falciparum 3D7, UniProt Q8IL11); test: P. falciparum M17LAP inhibitors, primary screen, biochemical, fluorogenic H-Leu-NHMec substrate, 1536-well (AID 1619); assay type: functional
T5 sequence (Q8IL11 whole entry): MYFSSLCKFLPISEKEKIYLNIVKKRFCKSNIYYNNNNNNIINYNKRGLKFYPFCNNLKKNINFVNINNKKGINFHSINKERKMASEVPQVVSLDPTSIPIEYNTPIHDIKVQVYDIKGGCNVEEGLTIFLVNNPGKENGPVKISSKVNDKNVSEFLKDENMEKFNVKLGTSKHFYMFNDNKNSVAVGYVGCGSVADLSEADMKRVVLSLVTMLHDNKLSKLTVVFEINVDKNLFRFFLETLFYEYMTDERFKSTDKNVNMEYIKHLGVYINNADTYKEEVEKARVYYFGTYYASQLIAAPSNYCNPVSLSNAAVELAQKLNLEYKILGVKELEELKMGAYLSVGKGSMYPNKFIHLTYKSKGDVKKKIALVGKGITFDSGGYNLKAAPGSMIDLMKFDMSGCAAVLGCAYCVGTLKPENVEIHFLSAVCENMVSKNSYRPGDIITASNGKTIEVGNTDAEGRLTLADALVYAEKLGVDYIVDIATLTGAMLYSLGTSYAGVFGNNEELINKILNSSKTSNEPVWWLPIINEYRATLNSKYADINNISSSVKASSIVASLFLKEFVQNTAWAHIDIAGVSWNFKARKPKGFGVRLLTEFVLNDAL

[18] = target: Dual specificity tyrosine-phosphorylation-regulated kinase 1A (Rattus norvegicus, UniProt Q63470); assay type: biochemical, Homo sapiens
[19] = tested on: H9c2; test: cells; assay type: functional, cell-based; conditions: Rattus norvegicus, H9c2, Myocardium;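 note: confirmatory concentration-response retest of ultra-high-throughput screening hits for modulation of myocardial damage; cell death induced by hydrogen peroxide oxidative stress; compound pretreatment for 60 min then peroxide exposure for 2 h; potency is for protecting the cells against peroxide damage rather than for killing them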
[20] = target: T6, Aurora kinase A (Homo sapiens, UniProt O14965); assay type: functional;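 note: value from the Navigating the Kinome kinase panel profiling, panel entry STK6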
T6 sequence (O14965 whole entry): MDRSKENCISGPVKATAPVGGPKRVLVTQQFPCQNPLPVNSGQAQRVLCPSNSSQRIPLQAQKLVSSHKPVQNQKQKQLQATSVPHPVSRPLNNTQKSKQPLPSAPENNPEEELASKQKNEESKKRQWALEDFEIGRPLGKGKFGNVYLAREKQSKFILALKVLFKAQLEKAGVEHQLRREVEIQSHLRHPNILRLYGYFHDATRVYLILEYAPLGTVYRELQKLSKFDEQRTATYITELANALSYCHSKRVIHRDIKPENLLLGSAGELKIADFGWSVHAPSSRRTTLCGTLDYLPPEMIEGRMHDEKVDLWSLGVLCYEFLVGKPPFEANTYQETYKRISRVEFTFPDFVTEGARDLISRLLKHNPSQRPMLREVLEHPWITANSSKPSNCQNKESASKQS

[21] = target: Aurora kinase B (Homo sapiens, UniProt Q96GD4); assay type: functional
Aurora kinase B, sequence (Q96GD4 whole entry): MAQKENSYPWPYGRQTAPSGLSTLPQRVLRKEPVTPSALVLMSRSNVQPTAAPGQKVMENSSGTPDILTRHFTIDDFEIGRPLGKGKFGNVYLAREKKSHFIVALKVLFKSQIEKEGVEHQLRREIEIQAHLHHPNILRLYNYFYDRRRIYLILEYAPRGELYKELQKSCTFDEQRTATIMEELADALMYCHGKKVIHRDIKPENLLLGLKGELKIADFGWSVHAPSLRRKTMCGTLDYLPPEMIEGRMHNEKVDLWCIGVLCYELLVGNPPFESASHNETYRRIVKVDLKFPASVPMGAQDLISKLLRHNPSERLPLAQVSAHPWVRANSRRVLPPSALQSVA

[22] = target: Vascular endothelial growth factor receptor 2 (Homo sapiens, UniProt P35968); assay type: functional
Vascular endothelial growth factor receptor 2, sequence (P35968 whole entry): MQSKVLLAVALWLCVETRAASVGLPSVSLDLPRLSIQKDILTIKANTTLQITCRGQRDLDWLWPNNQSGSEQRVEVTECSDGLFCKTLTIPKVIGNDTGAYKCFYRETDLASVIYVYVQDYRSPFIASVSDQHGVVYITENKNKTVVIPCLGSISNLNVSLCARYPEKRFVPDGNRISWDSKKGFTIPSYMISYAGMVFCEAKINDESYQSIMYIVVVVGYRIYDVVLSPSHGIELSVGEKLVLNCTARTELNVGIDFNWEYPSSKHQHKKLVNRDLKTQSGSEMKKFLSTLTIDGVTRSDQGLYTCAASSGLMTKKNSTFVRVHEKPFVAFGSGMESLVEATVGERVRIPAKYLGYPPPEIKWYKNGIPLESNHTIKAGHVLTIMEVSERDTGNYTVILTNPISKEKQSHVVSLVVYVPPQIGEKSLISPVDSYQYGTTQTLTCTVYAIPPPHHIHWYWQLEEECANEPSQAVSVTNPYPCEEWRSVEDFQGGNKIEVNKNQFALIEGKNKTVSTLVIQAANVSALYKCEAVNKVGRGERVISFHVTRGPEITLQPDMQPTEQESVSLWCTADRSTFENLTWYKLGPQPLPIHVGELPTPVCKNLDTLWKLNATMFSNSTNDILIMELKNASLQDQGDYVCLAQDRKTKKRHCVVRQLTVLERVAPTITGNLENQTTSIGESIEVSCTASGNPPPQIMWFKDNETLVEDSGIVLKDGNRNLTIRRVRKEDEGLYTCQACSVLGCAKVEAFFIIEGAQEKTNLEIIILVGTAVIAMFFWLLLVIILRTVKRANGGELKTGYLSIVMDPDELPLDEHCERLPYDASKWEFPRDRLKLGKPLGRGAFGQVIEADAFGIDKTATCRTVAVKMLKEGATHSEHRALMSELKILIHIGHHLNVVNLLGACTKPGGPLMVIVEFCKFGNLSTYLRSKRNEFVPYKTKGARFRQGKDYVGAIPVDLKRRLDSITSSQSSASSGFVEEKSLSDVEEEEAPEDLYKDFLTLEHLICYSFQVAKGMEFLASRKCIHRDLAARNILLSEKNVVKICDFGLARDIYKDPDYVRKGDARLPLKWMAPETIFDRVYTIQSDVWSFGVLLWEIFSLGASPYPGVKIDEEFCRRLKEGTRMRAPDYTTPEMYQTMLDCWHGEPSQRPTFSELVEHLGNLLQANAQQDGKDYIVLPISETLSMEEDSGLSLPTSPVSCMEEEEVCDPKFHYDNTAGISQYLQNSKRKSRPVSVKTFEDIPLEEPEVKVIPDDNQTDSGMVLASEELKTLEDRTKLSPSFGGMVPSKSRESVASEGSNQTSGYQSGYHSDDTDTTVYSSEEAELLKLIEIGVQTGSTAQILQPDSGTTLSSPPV

[23] = intracellular Trypanosoma cruzi inhibitors in host cells – cell-based, plate reader, cherry-pick samples, set 3, dose response (AID 651818); assay type: functional;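 note: compounds incubated with infected cells for about four days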
[24] = inhibitors of intracellular T. cruzi replication, confirmation, NIH3T3 host cells, beta-gal luminescence (AID 2044); assay type: functional, cell-based;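 note: intracellular parasites grown in NIH/3T3 mouse fibroblasts as host cells; luminescent beta-galactosidase reporter signal from transgenic T. cruzi replicating inside host cells; inhibitors lower the luminescence signal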
[25] = cytotoxicity toward NIH3T3 fibroblasts, dose response, counter-screen, cell-based, ATP luminescence, mouse fibroblasts (AID 2010); assay type: functional;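 note: cells exposed to compound for about 90 hours before reading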

With `CC(=O)c1ccc(NC(=O)Nc2ccc3c(c2)nc(C)n3C)cc1` the AC50 [1] was 42.9 µM (active).

With `CCCCCC(=O)Nc1ccccc1N1CCN(c2ccccc2)CC1` the IC50 [2] was 4.38 µM (active) and the IC50 [3] was 5.74 µM (active).

For `COc1ccc2ncc(S(=O)(=O)c3ccccc3)c(N3CCC4(CC3)OCCO4)c2c1`, the IC50 [4] was 14.5 µM (active).

With `O=C(Nc1nnc(C2CC2)s1)c1ccc(Cl)nc1` the IC50 [5] was > 80 µM (inactive).

With `CC(=O)c1ccc(N2CCN(c3ccnc4cc(Cl)ccc34)CC2)cc1` the EC50 [6] was 4.05 µM (active), the EC50 [7] was > 160 µM (inactive) and the AC50 [8] was 54.4 µM (active).

In the case of `Cc1ccc(C(=O)Nc2ncc3c(Cl)cccc3n2)cc1`, the AC50 [8] is reported as 2.46 µM (active).

For `CCC(=O)NC(c1cc(Cl)c2cccnc2c1O)C(C)C` (stereo not given), the AC50 [8] was 6.68 µM (active) and the AC50 [9] was 1.86 µM (active).

With `Nn1c(CSc2nc3ccccc3o2)nnc1CSc1nc2ccccc2o1` the IC50 [5] was > 80 µM (inactive).

For `COc1ccc(-n2c(CNc3ccc(C)cc3)nnc2SCC(=O)Nc2nc(-c3ccccc3)cs2)cc1`, the EC50 [10] was 2.49 µM (active), the EC50 [11] was 2.75 µM (active) and the AC50 [12] was 0.355 µM (inconclusive). The IC50 [13] was 21.9 µM (active), the IC50 [14] was 21.4 µM (active) and the AC50 [9] was 6.07 µM (active). The AC50 [15] was 7.94 µM (inconclusive) and the IC50 [16] was 39.7 µM (active).

With `CC(=O)c1ccc2c(c1)Cc1cc(C(C)=O)ccc1-2` the AC50 [1] was 96.8 µM (active).

In the case of `COc1ccc(N2Nc3[nH]nc(N)c3N2)cc1`, the IC50 [17] is reported as 10.4 µM (active) and the AC50 [18] is reported as 3.12 µM (active).

With `O=C(C1CCCN(c2ncnc3c2nc2n3CCCCC2)C1)N1CCN(c2ccc(F)cc2)CC1` (stereo not given) the IC50 [4] was 20.9 µM (active).

With `c1cc(-c2cc3cc4c(cc3cn2)OCO4)cs1` the AC50 [1] was 141 µM (active).

In the case of `CC(=O)c1ccc(N2CCN(C(=O)C3CCCN(c4ncnc5c4nc4n5CCCCC4)C3)CC2)cc1` (stereo not given), the IC50 [19] is reported as > 79 µM (inactive) and the IC50 [4] is reported as 18.2 µM (active).

With `CCCCN1CCN(c2ccc(-c3nc4c(C(N)=O)cccc4[nH]3)cc2)CC1` the Ki [20] was 0.794 µM (active), the Ki [21] was 0.0501 µM (active) and the Ki [22] was > 5.01 µM (inactive).

In the case of `COc1ccc(-c2cc(-c3ccccc3)c3cc(Cl)ccc3n2)cc1`, the Ki [20] is reported as 0.0501 µM (active) and the Ki [21] is reported as 0.251 µM (active).

With `NC(=NO)c1ccccc1S(=O)(=O)Nc1ccc2c(c1)C(=NO)c1ccccc1-2` the Ki [20] was 0.631 µM (active), the Ki [21] was 0.0251 µM (active) and the Ki [22] was > 5.01 µM (inactive).

In the case of `C[C@H]1CN([C@@H](C)CO)C(=O)c2cccc(NC(=O)c3ccncc3)c2O[C@@H]1CN(C)Cc1ccc2c(c1)OCO2`, the AC50 [23] is reported as 0.277 µM (active).

With `Cc1ccc(S(=O)(=O)Nc2ccc3c(c2)CC(=O)N([C@H](C)CO)C[C@@H](C)[C@H](CN(C)Cc2ccc4c(c2)OCO4)O3)cc1` the AC50 [23] was 4.35 µM (active).

In the case of `C[C@@H]1CN([C@H](C)CO)C(=O)c2cccc(NC(=O)Nc3ccc(C(F)(F)F)cc3)c2O[C@@H]1CN(C)C(=O)NC1CCCCC1`, the AC50 [23] is reported as 5.14 µM (active).

In the case of `NC(=O)N/N=C/c1ccc(-n2nncc2-c2ccc(Cl)cc2)cc1`, the IC50 [5] is reported as > 80 µM (inactive).

With `Oc1c(Br)cc(Br)cc1/C=N/n1c(S)nnc1-c1ccccc1` the IC50 [2] was 33.5 µM (inactive) and the IC50 [3] was 8.08 µM (active).

With `C/C(Cn1nnc([N+](=O)[O-])n1)=N\NC(=O)c1cccc(Cl)c1` the EC50 [24] was 0.416 µM (active), the EC50 [25] was > 60 µM (not active) and the IC50 [5] was > 80 µM (inactive).

For `C[N+](C)(CCOc1ccccc1)Cc1ccccc1`, the AC50 [18] was 10.5 µM (active).

Source: ChEMBL document CHEMBL1201862, “PubChem BioAssay data set” (2004)
